Here are results for five compounds from patent US5268462A, “Oleandomycin oximes” (Pliva Farmaceutska, priority 1990, dated 1993).

Values after ≈ are worked out from the molar mass of the structure shown. Some results are limits rather than exact numbers.

Assay type in all cases: cell-based
One assay relates to Staph. saprophyt. 3947. The experiment in a line: Antibacterial in vitro activity (MIC), clinical isolate. The following applies: Staph. saprophyt. 3947, clinical isolate; read-out: Minimal Inhibitory Concentration (MIC). An excerpt: (§1) The antibacterial in vitro activity was evidenced on a series of standard and clinically isolated strains. The results are expressed as Minimal Inhibitory Concentration (MIC; μg/mL) and represented hereinbelow in Tables 1 and 2.

The next assay relates to Strept. faecalis 10390. Described as above. To be noted: Enterococcus faecalis; Strept. faecalis 10390, clinical isolate; read-out: Minimal Inhibitory Concentration (MIC).
Text: as §1

Another assay concerns Staph. aureus 10099. Described as above. The following applies: Staphylococcus aureus; Staph. aureus 10099, clinical isolate; read-out: Minimal Inhibitory Concentration (MIC).
Text: as §1

The test system of the next assay is Staph. aureus 10097. The assay is described as above. To be noted: Staphylococcus aureus; Staph. aureus 10097, clinical isolate; read-out: Minimal Inhibitory Concentration (MIC).
Text: as §1

Another assay concerns Strept. pneumoniae 4050. The description is as above. To be noted: Streptococcus pneumoniae; Strept. pneumoniae 4050, clinical isolate; read-out: Minimal Inhibitory Concentration (MIC).
Text: as §1

Assay [1] relates to Klebsiella pneum. NCTC-10499. The assay can be described thus: Antibacterial in vitro activity (MIC), standard strain. The following applies: NCTC10499; Klebsiella pneum. NCTC-10499, standard strain; read-out: Minimal Inhibitory Concentration (MIC).
Text: as §1

Assay [2] concerns Staph. aureus ATCC 6538-P. Described as above. The following applies: Staphylococcus aureus, ATCC6538, read-out: Minimal Inhibitory Concentration (MIC).
Text: as §1

In assay [3] the test system is Strept. faecalis ATCC-8043. Described as above. To be noted: Enterococcus faecalis, ATCC8043; Strept. faecalis ATCC-8043, standard strain; read-out: Minimal Inhibitory Concentration (MIC).
Text: as §1

Another assay relates to E. coli ATCC 10536. The description is as above. The following applies: Escherichia coli, ATCC10536; E. coli ATCC 10536, standard strain; read-out: Minimal Inhibitory Concentration (MIC).
Text: as §1

The subject of the next assay is Sarcina lutea ATCC-9341. Described as above. The following applies: Micrococcus luteus, ATCC9341; Sarcina lutea ATCC-9341, standard strain; read-out: Minimal Inhibitory Concentration (MIC).
Text: as §1

The test system of another assay is Pseud. aerug. NCTC-10490. The description is as above. To be noted: Pseud. aerug. NCTC-10490, standard strain; read-out: Minimal Inhibitory Concentration (MIC).
Text: as §1

The next assay has as its system H. Influenze 4028. The assay can be described thus: Antibacterial in vitro activity (MIC), clinical isolate. The following applies: H. Influenze 4028, clinical isolate; read-out: Minimal Inhibitory Concentration (MIC).
Text: as §1

A further assay deals with Sarcina lutea ATCC 9341. The assay can be described thus: Activity on Sarcina lutea ATCC 9341.
Another assay has as its system Strept. pneumoniae. The assay can be described thus: MIC (clinical isolates), Examples 1-3. The following applies: Streptococcus pneumoniae.
Text: as §1

The test system of the next assay is Strept. serol. group A. The experiment in a line: MIC (clinical isolates), Examples 1-3.
Text: as §1

For `CO[C@H]1C[C@H](O[C@H]2[C@H](C)[C@@H](O[C@@H]3O[C@H](C)C[C@H](N(C)C)[C@H]3O)[C@@H](C)C[C@@]3(CO3)C(=O)[C@H](C)[C@@H](O)[C@@H](C)[C@@H](C)OC(=O)[C@@H]2C)O[C@@H](C)[C@@H]1O` [oleandomycin phosphate, reference compound], the MIC in the assay on Staph. saprophyt. 3947 is 1.6 µg/mL; in the assay with Strept. faecalis 10390, 3.1 µg/mL; in the assay with Staph. aureus 10099, 0.8 µg/mL; in the assay with Staph. aureus 10097, 0.8 µg/mL; with Strept. pneumoniae 4050 it was 1.6 µg/mL; in [1], more than 50 µg/mL. Moreover, the MIC in assay [2] is 0.4 µg/mL; in assay [3], 0.8 µg/mL; in the assay with E. coli ATCC 10536, 25 µg/mL; in the assay with Sarcina lutea ATCC-9341 it was 0.2 µg/mL; in the assay with Pseud. aerug. NCTC-10490, more than 50 µg/mL.
Consider `COC1CC(OC2C(C)C(=O)OC(C)C(C)C(O)C(C)C(=NO)C(C)CC(C)C(OC3OC(C)CC(N(C)C)C3O)C2C)OC(C)C1O` (single isomer, unassigned) [Ie, 8-methyl-oleandomycin oxime], for which the MIC turned out to be 0.4 µg/mL (≈ 0.581 µM) with H. Influenze 4028; 1.6 µg/mL (≈ 2.32 µM) with Staph. saprophyt. 3947; 0.8 µg/mL (≈ 1.16 µM) in the assay with Strept. faecalis 10390; 0.4 µg/mL (≈ 0.581 µM) in the assay on Staph. aureus 10099; 0.4 µg/mL (≈ 0.581 µM) in the assay on Staph. aureus 10097; 0.4 µg/mL (≈ 0.581 µM) with Strept. pneumoniae 4050. Further, the MIC in [1] was 50 µg/mL (≈ 72.6 µM); in [2], 0.2 µg/mL (≈ 0.29 µM); in assay [3], 0.2 µg/mL (≈ 0.29 µM); in the assay on E. coli ATCC 10536 it was 6.2 µg/mL (≈ 9 µM); with Sarcina lutea ATCC-9341, 0.2 µg/mL (≈ 0.29 µM); with Pseud. aerug. NCTC-10490, 50 µg/mL (≈ 72.6 µM). Also, the Activity with Sarcina lutea ATCC 9341 stood at 657 u/mg.
Take `COC1CC(OC2C(C)C(=O)OC(C)C(C)C(O)C(C)C(=NO)C3(CO3)CC(C)C(OC3OC(C)CC(N(C)C)C3O)C2C)OC(C)C1O` (stereo not drawn) [Ia, OLEANDOMYCIN OXIME]: the MIC in the assay on Strept. pneumoniae and in the assay with Strept. serol. group A was 0.5 µg/mL (≈ 0.711 µM) in each case.
Turning to `C=C1CC(C)C(OC2OC(C)CC(N(C)C)C2O)C(C)C(OC2CC(OC)C(O)C(C)O2)C(C)C(=O)OC(C)C(C)C(O)C(C)C1=NO` (stereo not drawn) [Ic, 8-METHYLENE-OLEANDOMYCIN OXIME], the MIC in the assay on Strept. pneumoniae and against Strept. serol. group A was 1 µg/mL (≈ 1.46 µM) in each case.
In the case of `COC1CC(OC2C(C)C(=O)OC(C)C(C)C=C(C)C(=NO)C3(CO3)CC(C)C(OC3OC(C)CC(N(C)C)C3O)C2C)OC(C)C1O` (stereo not drawn) [Ib, ANHYDRO OLEANDOMYCIN OXIME], the MIC stood at 2 µg/mL (≈ 2.92 µM) against Strept. pneumoniae and 1 µg/mL (≈ 1.46 µM) against Strept. serol. group A.
